# pIC50: −log10 of the molar value.
# Experiments:
# [1] = test system: human prostate cancer cell line, LNCaP; assay: In vivo inhibition of prostate cancer (2); set-up: species or system male Balb/C-strain athymic nude mice; settings: for Tumor growth rate (%): 60 mg/kg/day, oral, 30 mg/kg twice daily for 21 days
# Procedure: 5,000,000 cells of human prostate cancer cell line, LNCaP, were suspended in a gelmatrix solution and implanted subcutaneously at the breast in 8-week old male Balb/C-strain athymic nude mice (Friedman R. et al., Proceedings of the National Academy of Sciences of the U.S.A. Vol. 87, pp.6698-6702, 1990). 33 days after the implantation, the diameters of tumors were measured. Five mice per group with similar tumor size were used for the experiment. Compound 8 of the present invention was suspended in a 5% gum arabic solution (physiological saline) and administered orally twice daily in a dose of 30 mg/kg body weight for 21 days. For another experiment, the mice were castrated 33 days after implantation of the cancer cell for observing the effect of hormone depletion on the prostate cancer growth. Furthermore, Compound 8 of the present invention was administered orally twice daily in a dose of 30 mg/kg body weight for 21 days to the castrated mice. After the completion of the dosing, the diameters of tumor were measured. The tumor volume was calculated by the following formula: volume of tumor=longest diameter×shortest diameter×shortest diameter×1/2. The growth rate of tumors was obtained as the proportion to the volume of tumor in the control animals in which only the gum arabic solution was administered. The body weights of mice administered with Compound 8 of the present invention were measured during the experiment to observe no decrease.
# MDA-MB-453 = assay: In vitro inhibition of cell proliferation (1); assay type: cell-based; settings: Homo sapiens, 72 h; Breast cancer MDA-MB-453; 3 days; SRB
# Procedure: 100 μl (containing 2,000 cells) of a cell suspension of human breast cancer cell line MDA-MB-453 was seeded in each well of the 96-well microtiter plates. The cultures were incubated at 37° C. in a 5% carbon dioxide gas incubator. On the next day, 100 μl of the 2-fold serial dilution of each compound solution was added to each well and the mixtures were cultured for 3 days. The solution containing the compound was removed and the cells were washed with water. To the cells was added a 0.4% (W/V) dye SRB (dissolved in 1% acetic acid) solution to fix and stain the cell protein (Skehan P. et al., Journal of the National Cancer Institute Vol.82, pp.1107-1112, 1990). The dye solution was removed and the fixed and stained cell protein was washed. The protein-bound dye was extracted with 200 μl of 10 mM Tris buffer. The optical density of the extracted dye was determined at the wavelength of 540 nm to estimate the quantity of the cells in terms of the protein quantity. Designating the protein quantity in the control to which no compound solution was added as 100%, the proportion of the residual protein quantity in each treated group was calculated, and IC50, which was concentration of the compound required to inhibit the residual protein quantity to 50% the quantity of the control, was calculated.
# [2] = test system: human breast cancer cell line, MDA-MB-453; assay: In vivo mammary cancer inhibiting effect (1); set-up: species or system female Balb/C strain athymic nude mice; settings: for Tumor growth rate (%): oral, tumor volume vs control
# Procedure: 5,000,000 cells of human breast cancer cell line, MDA-MB-453, were suspended in a gelmatrix solution. The suspension was subcutaneously implanted at the breast in 7-week-old female Balb/C strain athymic nude mice (Friedman R. et al., Proceedings of the National Academy of Sciences of the U.S.A. Vol. 87, pp.6698-6702, 1990). Twelve days after the implantation, the diameters of tumors were determined. For the experiment were used 5 mice per group with similar tumor size. Compound 8 of the present invention was suspended in a 5% gum arabic solution (physiologicalsaline) and administered orally twice daily in dose of 30 mg/kg body weight for 10 days, or 2 cycle oral administrations consisting of 45 mg/kg body weight twice daily for 3 days and no treatment for 3 days were performed. On the day when the dosing was ended, the diameters of tumors were measured. Tumor volume was calculated by the following formula: volume of tumor=longest diameter×shortest diameter×shortest diameter×1/2. The growth rate of tumors was obtained as the proportion to the volume of tumor in the control animals in which only the gum arabic solution was administered. The body weights of mice administered with Compound 8 of the present invention were measured during the experiment to observe no decrease.
# HER2 = HER2 (Homo sapiens, UniProt P04626); assay: Inhibition of phosphorylation of receptor tyrosine in human breast cancer cells (1), T-47D, heregulin-stimulated; assay type: cell-based
# Procedure: Human breast cancer cell line T-47D was cultured for 7 days in the medium containing 0.1% bovine fetus albumin instead of serum to deprive the medium of estrogen. On the 7th day, 1,000 μl of the cell suspension (250,000 cells) was seeded in each well of the 24-well plates. The culture were incubated at 37° C. in a 5% carbon dioxide gas incubator. On the next day, 100 μl of the 10-fold serial dilution of each compound solution was added to each well and, 2 hours later, 0.5 μg/ml of heregulin was added to it. After 5 minutes the extract solution was added to it to terminate the reaction, and the protein fraction was extracted. To the extract was added an antibody against the human receptor type oncogene HER2 to precipitate the human receptor type oncogene HER2 protein by the reaction of immunoprecipitation. The precipitate was fractionated by the protein electrophoresis. The protein in the electrophoretic gel was transferred to a nylon filter. The filter was allowed to react with the phosphorylated tyrosine-specific antibody. The reaction product was fluorescence-labeled to expose a photofilm. The intensity of the exposure on the photofilm was quantitated by an image-analyzing apparatus. The proportion of the phosphorylation of HER2 tyrosine in the cells added with a compound solution of each concentration was calculated designating the phosphorylation of HER2 tyrosine in the heregulin-added cells as 100%.
# Sequence of HER2 (P04626 23-1255): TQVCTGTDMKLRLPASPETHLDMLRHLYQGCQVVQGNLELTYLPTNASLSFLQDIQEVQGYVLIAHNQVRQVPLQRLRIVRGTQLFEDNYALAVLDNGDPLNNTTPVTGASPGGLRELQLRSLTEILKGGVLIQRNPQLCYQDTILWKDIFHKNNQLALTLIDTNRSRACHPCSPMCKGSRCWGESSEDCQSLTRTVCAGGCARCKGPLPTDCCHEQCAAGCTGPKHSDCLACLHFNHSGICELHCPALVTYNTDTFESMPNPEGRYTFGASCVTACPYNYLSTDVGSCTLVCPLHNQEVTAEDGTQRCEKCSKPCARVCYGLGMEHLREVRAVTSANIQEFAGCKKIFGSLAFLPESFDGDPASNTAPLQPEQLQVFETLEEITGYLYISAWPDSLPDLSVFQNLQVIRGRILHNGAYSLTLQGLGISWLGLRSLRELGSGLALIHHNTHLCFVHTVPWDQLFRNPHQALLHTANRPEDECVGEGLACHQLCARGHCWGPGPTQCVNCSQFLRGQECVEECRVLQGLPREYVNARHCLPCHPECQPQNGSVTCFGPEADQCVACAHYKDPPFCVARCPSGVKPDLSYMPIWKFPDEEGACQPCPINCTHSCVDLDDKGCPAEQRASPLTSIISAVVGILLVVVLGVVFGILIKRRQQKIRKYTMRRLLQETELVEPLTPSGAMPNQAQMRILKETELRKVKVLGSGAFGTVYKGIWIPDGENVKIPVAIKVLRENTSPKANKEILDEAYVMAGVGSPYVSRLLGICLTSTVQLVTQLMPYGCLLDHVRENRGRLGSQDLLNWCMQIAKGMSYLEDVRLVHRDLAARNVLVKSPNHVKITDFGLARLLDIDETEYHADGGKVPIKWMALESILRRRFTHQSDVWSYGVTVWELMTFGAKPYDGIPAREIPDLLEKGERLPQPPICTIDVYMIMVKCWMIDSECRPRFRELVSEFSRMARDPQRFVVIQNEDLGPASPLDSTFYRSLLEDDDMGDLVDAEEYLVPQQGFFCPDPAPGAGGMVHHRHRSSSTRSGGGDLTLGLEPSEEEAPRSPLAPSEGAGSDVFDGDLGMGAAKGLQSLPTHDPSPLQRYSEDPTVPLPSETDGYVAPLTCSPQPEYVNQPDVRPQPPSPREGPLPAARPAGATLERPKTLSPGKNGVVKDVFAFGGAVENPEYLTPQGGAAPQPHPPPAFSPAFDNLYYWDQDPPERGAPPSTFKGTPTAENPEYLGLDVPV
structure (smiles),measurement,setting,value
"C(=C\c1nc(COc2ccc(CCCn3ccnc3)cc2)co1)/c1ccccc1 [Compound 8, 4-[4-[3-(1-imidazolyl)propyl]phenoxymethyl]-2-[(E)-2-phenylethenyl]oxazole]",Tumor growth rate (%),[1]; castrated group (castrated without compound: 69),55%
same,Tumor growth rate (%),"[1]; non-castrated, tumor volume vs control",80%
same,Inhibition of implanted tumor growth,"[1]; LNCaP, athymic nude mice",inhibiting tumor growth of hormone dependent prostate cancer LNCaP
same,Effect of castration on tumor growth inhibiting effect,"[1]; LNCaP, castrated athymic nude mice",further enhanced when the hormone levels were reduced by castration
same,pIC50,MDA-MB-453,6.60
same,Tumor growth rate (%),"[2]; 60 mg/kg/day, 30 mg/kg twice daily for 10 days",71%
same,Tumor growth rate (%),"[2]; 90 mg/kg/day, 2 cycles of 45 mg/kg twice daily 3 days and 3 days off",46%
same,Inhibition of implanted tumor growth,"[2]; MDA-MB-453, athymic nude mice",inhibited dose-dependently the growth of human breast cancer
same,activity at 0.4 µM,"HER2; T47D, 0.4 μM, heregulin control = 100%, read-out: Phosphorylation of the tyrosine residue (%)",62%
same,activity at 1.6 µM,"HER2; T47D, 1.6 μM, heregulin control = 100%, read-out: Phosphorylation of the tyrosine residue (%)",52%
same,activity at 6.3 µM,"HER2; T47D, 6.3 μM, heregulin control = 100%, read-out: Phosphorylation of the tyrosine residue (%)",33%
same,activity at 25 µM,"HER2; T47D, 25 μM, heregulin control = 100%, read-out: Phosphorylation of the tyrosine residue (%)",20%
same,Inhibition of receptor tyrosine phosphorylation,HER2; heregulin,inhibit dose-dependently the phosphorylation reaction of the tyrosine residue in the receptor protein

# From patent US6211215A, “Heterocyclic compounds, their production and use” (Takeda Chemical Industries, Ltd., priority 1996, dated 2001)
